According to PubChem BioAssay (NCI):
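Values below derive from 48-hour exposures of cells grown in 96-well plates, with endpoints linearly interpolated between the two concentrations bracketing the appropriate inhibition level. Definition used: TGI = concentration required for complete inhibition of growth.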

What was measured:
Experiment in all cases: NCI tumour cell line growth inhibition, 48 h
LXFL 529 NSCLC = test system: LXFL 529 NSCLC
M19-MEL melanoma = test system: M19-MEL melanoma
DMS 273 small cell lung = test system: DMS 273 small cell lung
DLD-1 colon = test system: DLD-1 colon
KM20L2 colon = test system: KM20L2 colon
XF 498 CNS = test system: XF 498 CNS
P388 leukemia = test system: P388 leukemia
P388/ADR leukemia = test system: P388/ADR leukemia
SN12K1 renal = test system: SN12K1 renal
HOP-18 NSCLC = test system: HOP-18 NSCLC

SMILES	TGI (LXFL 529 NSCLC) [µM]	TGI (M19-MEL melanoma) [µM]	TGI (DMS 273 small cell lung) [µM]	TGI (DLD-1 colon) [µM]	TGI (KM20L2 colon) [µM]	TGI (XF 498 CNS) [µM]	TGI (P388 leukemia) [µM]	TGI (P388/ADR leukemia) [µM]	TGI (SN12K1 renal) [µM]	TGI (HOP-18 NSCLC) [µM]
Oc1ccc2c(c1)CC[N+]1=C2CCC2CCCC21 (stereo unspecified)	> 100	> 100	> 100	> 100	–	–	–	–	–	–
[N-]=[N+]=NC1CC(n2cc(COCC(F)(F)F)c(=O)[nH]c2=O)OC1CO (stereo unspecified)	> 100	> 100	> 100	> 100	> 100	> 100	–	–	–	–
CC(=O)OCc1cc(=O)n(C)c2c3c4c(cc12)c(C)cc(=O)n4CO3	–	4.21	3.86	26.3	15.8	3.82	4.99	3.34	5.57	51.5
CN(C)CCCNc1c2ccccc2nc2cccc([N+](=O)[O-])c12	–	0.0787	0.0184	–	0.0398	0.0147	–	–	–	–
CSc1nc(NC2OCC(O)C(O)C2O)c(N)c(=O)n1C (stereo unspecified)	–	–	> 100	> 100	> 100	> 100	> 100	> 100	> 100	> 100
